According to patent US7320978B2, “Oxazole derivatives, preparation and therapeutic use thereof” (Sanofi-Aventis, priority 2004, dated 2008):

melting point: 175 °C
SMILES: CC(=O)C1(c2ccccc2)CCN(C(=O)c2nc(-c3ccc(Cl)cc3)c(-c3ccc(Cl)cc3Cl)o2)CC1
